Experimental data: patent US20020137929A1, “1 - (3-heterocyclylphenyl) isothiourea, -isourea, -guanidine and -amidine herbicidal agents” (Intellectual Property Department, BASF Aktiengesellschaft, priority 1998, published 2002)

Legend:
[1] = system: AMBEL (Ragweed, Common); test: Preemergence herbicidal evaluation; format: in vivo, Ambrosia artemisifolia; conditions: rated 4-5 weeks after treatment
Method in brief: (§1)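 Visual 0-9 rating vs control (stand, vigor, malformation, size, chlorosis, overall appearance), scored 4-5 wk after spraying. Seeded soil cups were treated preemergence with compound in aqueous acetone, ~0.0156-0.500 kg/ha equivalent.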

[2] = system: IPOHE (Morningglory, Ivyleaf); test: Postemergence herbicidal evaluation; format: in vivo, Ipomoea hederacea
Method in brief: (§2)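 Young plants, roughly two weeks from seeding, receive the active ingredient as a sprayed dispersion (acetone/water 50/50, 0.5% TWEEN 20) at 40 psi. Doses span about 0.0156 to 0.500 kg/ha. A visual score from 0 to 9 compares treated with control plants four to five weeks on.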

[3] = system: ECHCG (Barnyardgrass); test: Preemergence herbicidal evaluation; format: in vivo, Echinochloa crus-galli; conditions: rated 4-5 weeks after treatment
Method in brief: as §1

[4] = system: CASOB (Sicklepod); test: Preemergence herbicidal evaluation; format: in vivo, Cassia obtusifolia; conditions: rated 4-5 weeks after treatment
Method in brief: as §1

[5] = system: SAGPY (Arrowhead (Pygmaea)); test: Preemergence weed control under flooded paddy conditions; format: in vivo, Sagittaria pygmaea; conditions: rated 3-4 weeks after treatment
Method in brief: (§3)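 Visual injury scored 0-9 against control three to four weeks post-treatment, greenhouse-grown. Application: acetone/water (50/50) solutions dosed directly into flood water (1.5-3 cm over silt loam, planted top 0.5 cm), roughly 0.0313 to 0.500 kg/ha active ingredient.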

[6] = system: GLXMAW (Soybean, Williams); test: Postemergence herbicidal evaluation; format: in vivo, Glycine max, (L.) Merr. cv Williams
Method in brief: as §2

[7] = system: AMBEL (Ragweed, Common); test: Postemergence herbicidal evaluation; format: in vivo, Ambrosia artemisifolia
Method in brief: as §2

[8] = system: ZEAMX (Corn, Field); test: Postemergence herbicidal evaluation; format: in vivo, Zea mays
Method in brief: as §2

[9] = system: GALAP (Galium); test: Preemergence herbicidal evaluation; format: in vivo, Galium aparine; conditions: rated 4-5 weeks after treatment
Method in brief: as §1

[10] = system: CYPSE (Flatsedge); test: Preemergence weed control under flooded paddy conditions; format: in vivo, Cyperus serotinus; conditions: rated 3-4 weeks after treatment
Method in brief: as §3

[11] = system: GLXMAW (Soybean, Williams); test: Preemergence herbicidal evaluation; format: in vivo, Glycine max, (L.) Merr. cv Williams; conditions: rated 4-5 weeks after treatment
Method in brief: as §1

[12] = system: ECHORC (Watergrass (Calif.)); test: Postemergence weed control under flooded paddy conditions; format: in vivo, Echinochloa oryzoides; conditions: postemergence weeds, 3-4 weeks after treatment
Method in brief: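 Injury ratings (0–9 scale covering stand, vigor, malformation, size, chlorosis and overall appearance versus control) were made three to four weeks after treatment. Test material, about 0.0313 to 0.500 kg/ha a.i. in 50/50 v/v aqueous/acetone, was added to flood water 1.5 to 3 cm deep over 3 to 5 cm weeds and 1.5 to 2.5 leaf rice.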

[13] = system: ABUTH (Velvetleaf); test: Preemergence herbicidal evaluation; format: in vivo, Abutilon theophrasti; conditions: rated 4-5 weeks after treatment
Method in brief: as §1

[14] = system: SETVI (Foxtail, Green); test: Preemergence herbicidal evaluation; format: in vivo, Setaria viridis; conditions: rated 4-5 weeks after treatment
Method in brief: as §1

Structure (SMILES): CCOC(=O)CCN1C(=O)CSC1=Nc1cc(-n2c(=O)cc(C(F)(F)F)n(C)c2=O)c(Cl)cc1Cl [Compound 32, Ethyl 2-{{2,4-dichloro-5-[3,6-dihydro-3-methyl-2,6-dioxo-4-(trifluoromethyl)-1(2H)-pyrimidinyl]-phenyl}imino}-4-oxo-3-thiazolidinepropionate]
- Preemergence herbicidal rating AMBEL ([1]; rate 0.0156 kg/ha): 0.0
- Preemergence herbicidal rating AMBEL ([1]; rate 0.0313 kg/ha): 0.5
- Preemergence herbicidal rating AMBEL ([1]; rate 0.0625 kg/ha): 0.5
- Preemergence herbicidal rating AMBEL ([1]; rate 0.1250 kg/ha): 0.5
- Preemergence herbicidal rating AMBEL ([1]; rate 0.2500 kg/ha): 5.5
- Preemergence herbicidal rating AMBEL ([1]; rate 0.5000 kg/ha): 9.0
- Postemergence herbicidal rating IPOHE ([2]; Rate 0.0158 kg/ha): 9.0
- Postemergence herbicidal rating IPOHE ([2]; Rate 0.0313 kg/ha): 9.0
- Postemergence herbicidal rating IPOHE ([2]; Rate 0.0625 kg/ha): 9.0
- Postemergence herbicidal rating IPOHE ([2]; Rate 0.1250 kg/ha): 9.0
- Preemergence herbicidal rating ECHCG ([3]; rate 0.0156 kg/ha): 0.0
- Preemergence herbicidal rating ECHCG ([3]; rate 0.0313 kg/ha): 0.0
- Preemergence herbicidal rating ECHCG ([3]; rate 0.0625 kg/ha): 0.0
- Preemergence herbicidal rating ECHCG ([3]; rate 0.1250 kg/ha): 0.5
- Preemergence herbicidal rating ECHCG ([3]; rate 0.2500 kg/ha): 0.0
- Preemergence herbicidal rating ECHCG ([3]; rate 0.5000 kg/ha): 1.0
- Preemergence herbicidal rating CASOB ([4]; rate 0.0156 kg/ha): 0.5
- Preemergence herbicidal rating CASOB ([4]; rate 0.0313 kg/ha): 0.0
- Preemergence herbicidal rating CASOB ([4]; rate 0.0625 kg/ha): 0.0
- Preemergence herbicidal rating CASOB ([4]; rate 0.1250 kg/ha): 0.0
- Preemergence herbicidal rating CASOB ([4]; rate 0.2500 kg/ha): 0.0
- Preemergence herbicidal rating CASOB ([4]; rate 0.5000 kg/ha): 0.0
- Herbicidal rating SAGPY ([5]; 0.1250 kg/ha): 0.0
- Herbicidal rating SAGPY ([5]; 0.2500 kg/ha): 0.0
- Postemergence herbicidal rating GLXMAW ([6]; Rate 0.0158 kg/ha): 3.5
- Postemergence herbicidal rating GLXMAW ([6]; Rate 0.0313 kg/ha): 5.5
- Postemergence herbicidal rating GLXMAW ([6]; Rate 0.0625 kg/ha): 6.0
- Postemergence herbicidal rating GLXMAW ([6]; Rate 0.1250 kg/ha): 6.0
- Postemergence herbicidal rating AMBEL ([7]; Rate 0.0158 kg/ha): 3.0
- Postemergence herbicidal rating AMBEL ([7]; Rate 0.0313 kg/ha): 0.0
- Postemergence herbicidal rating AMBEL ([7]; Rate 0.0625 kg/ha): 3.0
- Postemergence herbicidal rating AMBEL ([7]; Rate 0.1250 kg/ha): 9.0
- Postemergence herbicidal rating ZEAMX ([8]; Rate 0.0158 kg/ha): 4.0
- Postemergence herbicidal rating ZEAMX ([8]; Rate 0.0313 kg/ha): 6.0
- Postemergence herbicidal rating ZEAMX ([8]; Rate 0.0625 kg/ha): 7.0
- Postemergence herbicidal rating ZEAMX ([8]; Rate 0.1250 kg/ha): 7.0
- Preemergence herbicidal rating GALAP ([9]; rate 0.0156 kg/ha): 0.0
- Preemergence herbicidal rating GALAP ([9]; rate 0.0313 kg/ha): 0.0
- Preemergence herbicidal rating GALAP ([9]; rate 0.0625 kg/ha): 0.0
- Preemergence herbicidal rating GALAP ([9]; rate 0.1250 kg/ha): 0.5
- Preemergence herbicidal rating GALAP ([9]; rate 0.2500 kg/ha): 3.5
- Preemergence herbicidal rating GALAP ([9]; rate 0.5000 kg/ha): 7.0
- Herbicidal rating CYPSE ([10]; 0.1250 kg/ha): 0.0
- Herbicidal rating CYPSE ([10]; 0.2500 kg/ha): 0.0
- Preemergence herbicidal rating GLXMAW ([11]; rate 0.0156 kg/ha): 0.0
- Preemergence herbicidal rating GLXMAW ([11]; rate 0.0313 kg/ha): 0.5
- Preemergence herbicidal rating GLXMAW ([11]; rate 0.0625 kg/ha): 0.5
- Preemergence herbicidal rating GLXMAW ([11]; rate 0.1250 kg/ha): 0.5
- Preemergence herbicidal rating GLXMAW ([11]; rate 0.2500 kg/ha): 1.0
- Preemergence herbicidal rating GLXMAW ([11]; rate 0.5000 kg/ha): 3.0
- Herbicidal rating ECHORC ([12]; rate 0.1250 kg/ha): 3.0
- Herbicidal rating ECHORC ([12]; rate 0.2500 kg/ha): 6.0
- Preemergence herbicidal rating ABUTH ([13]; rate 0.0156 kg/ha): 0.0
- Preemergence herbicidal rating ABUTH ([13]; rate 0.0313 kg/ha): 2.5
- Preemergence herbicidal rating ABUTH ([13]; rate 0.0625 kg/ha): 1.5
- Preemergence herbicidal rating ABUTH ([13]; rate 0.1250 kg/ha): 9.0
- Preemergence herbicidal rating ABUTH ([13]; rate 0.2500 kg/ha): 9.0
- Preemergence herbicidal rating ABUTH ([13]; rate 0.5000 kg/ha): 9.0
- Preemergence herbicidal rating SETVI ([14]; rate 0.0156 kg/ha): 0.0
- Preemergence herbicidal rating SETVI ([14]; rate 0.0313 kg/ha): 0.0
- Preemergence herbicidal rating SETVI ([14]; rate 0.0625 kg/ha): 0.5
- Preemergence herbicidal rating SETVI ([14]; rate 0.1250 kg/ha): 3.5
- Preemergence herbicidal rating SETVI ([14]; rate 0.2500 kg/ha): 9.0
- Preemergence herbicidal rating SETVI ([14]; rate 0.5000 kg/ha): 9.0
